Assay results from PubChem BioAssay (NCI).
Values joined by “and” are separate entries in the source; they are usually repeats but may differ in a detail not shown here. Equal entries are not always repeated.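 Following 48 hours of exposure in 96-well plates, responses at five concentrations were used to interpolate endpoints linearly. GI50 is the concentration that inhibits growth by half. Definition used: TGI = concentration required for complete inhibition of growth.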

Columns and labels:
Assay in all cases: NCI anticancer screen, dose series, 48 h
CCRF-CEM leukemia = tested on: CCRF-CEM leukemia
NCI-H522 lung = tested on: NCI-H522 lung
OVCAR-5 ovarian = tested on: OVCAR-5 ovarian
RXF 393 renal = tested on: RXF 393 renal
HOP-92 NSCLC = tested on: HOP-92 NSCLC
A549 NSCLC = tested on: A549 NSCLC
LOX IMVI melanoma = tested on: LOX IMVI melanoma
SK-MEL-5 melanoma = tested on: SK-MEL-5 melanoma
NCI-H226 lung = tested on: NCI-H226 lung
HS 578T breast = tested on: HS 578T breast

`CCOC(=O)/C(=C/c1ccccn1)C(=O)c1ccccc1` was tested, and the TGI (CCRF-CEM leukemia) was > 31 µM, the TGI (NCI-H522 lung) was 13.8 µM and the TGI (OVCAR-5 ovarian) was 33.5 µM. It also gave a TGI (RXF 393 renal) of 24.2 µM, a TGI (HOP-92 NSCLC) of 21.1 µM and a TGI (A549 NSCLC) of 44.5 µM. For the same compound, the TGI (LOX IMVI melanoma) was 6.94 µM, the TGI (SK-MEL-5 melanoma) was 28.6 µM and the TGI (NCI-H226 lung) was 31.8 µM.

For `N#Cc1ccc(Sc2nc3ccccc3[nH]2)cc1`, the TGI (CCRF-CEM leukemia) was > 100 µM, the TGI (NCI-H522 lung) was > 100 µM and the TGI (OVCAR-5 ovarian) was > 100 µM. For the same compound, the TGI (RXF 393 renal) was > 100 µM, the TGI (HOP-92 NSCLC) was > 100 µM and the TGI (A549 NSCLC) was > 100 µM. For the same compound, the TGI (LOX IMVI melanoma) was > 100 µM, the TGI (SK-MEL-5 melanoma) was > 100 µM and the TGI (NCI-H226 lung) was > 100 µM.

With `COc1ccccc1Oc1nccc(-c2c(-c3ccc(F)cc3)ncn2C2CCNCC2)n1` the GI50 (NCI-H522 lung) was > 25 µM, the TGI (NCI-H522 lung) was > 25 µM and the GI50 (OVCAR-5 ovarian) was > 25 µM. For the same compound, the TGI (OVCAR-5 ovarian) was > 25 µM, the GI50 (RXF 393 renal) was 8.67 µM and the TGI (RXF 393 renal) was > 25 µM. For the same compound, the GI50 (A549 NSCLC) was > 25 µM, the TGI (A549 NSCLC) was > 25 µM and the GI50 (HS 578T breast) was > 6.75 µM. For the same compound, the TGI (HS 578T breast) was > 23 µM, the GI50 (LOX IMVI melanoma) was 17.6 µM and the TGI (LOX IMVI melanoma) was > 25 µM. The GI50 (SK-MEL-5 melanoma) was 7.2 µM and the TGI (SK-MEL-5 melanoma) was > 25 µM.

`COc1cc(/C=C/c2csnn2)cc(OC)c1OC` was tested, and the TGI (CCRF-CEM leukemia) was > 100 µM, the TGI (NCI-H522 lung) was > 100 µM and the TGI (OVCAR-5 ovarian) was > 100 µM. The TGI (RXF 393 renal) was > 100 µM, the TGI (HOP-92 NSCLC) was > 100 µM and the TGI (A549 NSCLC) was > 100 µM. For the same compound, the TGI (LOX IMVI melanoma) was > 100 µM, the TGI (SK-MEL-5 melanoma) was > 100 µM and the TGI (NCI-H226 lung) was > 100 µM.

For `O=C(O)CN(CCN(CC(=O)O)CC(=O)O)CC(=O)O.[Mn+2]`, the GI50 (CCRF-CEM leukemia) was > 100 µM, the TGI (CCRF-CEM leukemia) was > 100 µM and the GI50 (NCI-H522 lung) was > 100 µM. For the same compound, the TGI (NCI-H522 lung) was > 100 µM, the GI50 (OVCAR-5 ovarian) was > 100 µM and the TGI (OVCAR-5 ovarian) was > 100 µM. The GI50 (RXF 393 renal) was > 100 µM, the TGI (RXF 393 renal) was > 100 µM and the GI50 (A549 NSCLC) was > 100 µM. The TGI (A549 NSCLC) was > 100 µM, the GI50 (HS 578T breast) was > 100 µM and the TGI (HS 578T breast) was > 100 µM. The GI50 (LOX IMVI melanoma) was > 100 µM, the TGI (LOX IMVI melanoma) was > 100 µM and the GI50 (SK-MEL-5 melanoma) was > 100 µM. The TGI (SK-MEL-5 melanoma) was > 100 µM, the GI50 (NCI-H226 lung) was > 100 µM and the TGI (NCI-H226 lung) was > 100 µM.

With `COc1ccc(/C=C2\C(=O)N(NC(C)=O)c3ccccc32)cc1` the TGI (CCRF-CEM leukemia) was > 100 µM, the TGI (OVCAR-5 ovarian) was > 100 µM and the TGI (HOP-92 NSCLC) was > 100 µM. The TGI (A549 NSCLC) was > 100 µM, the TGI (LOX IMVI melanoma) was > 100 µM and the TGI (SK-MEL-5 melanoma) was > 100 µM. The TGI (NCI-H226 lung) was > 100 µM.

For `COC(=O)C(C(=O)C(=O)Nc1c(Cl)cc([N+](=O)[O-])cc1Cl)c1csc(-n2nc(C3=CCCCC3)cc2-c2ccccc2)n1` (stereo not drawn), the TGI (CCRF-CEM leukemia) was > 100 µM, the TGI (NCI-H522 lung) was > 100 µM and the TGI (OVCAR-5 ovarian) was > 100 µM. The TGI (RXF 393 renal) was > 100 µM, the TGI (HOP-92 NSCLC) was 77.7 µM and the TGI (A549 NSCLC) was > 100 µM. The TGI (LOX IMVI melanoma) was > 100 µM and the TGI (NCI-H226 lung) was > 100 µM.

For `CCOC(=O)C1(C)CCC(C(C(=O)O)C(=O)O)CC1=O` (stereo not drawn), the TGI (CCRF-CEM leukemia) was > 100 µM, the TGI (NCI-H522 lung) was > 100 µM and the TGI (OVCAR-5 ovarian) was > 100 µM. For the same compound, the TGI (RXF 393 renal) was > 100 µM, the TGI (HOP-92 NSCLC) was > 100 µM and the TGI (A549 NSCLC) was > 100 µM. For the same compound, the TGI (LOX IMVI melanoma) was > 100 µM, the TGI (SK-MEL-5 melanoma) was > 100 µM and the TGI (NCI-H226 lung) was > 100 µM.

In the case of `CC1NOC(=O)C1N=Nc1ccc(Cl)cc1Cl` (stereo not drawn), the TGI (CCRF-CEM leukemia) is reported as > 100 µM, the TGI (NCI-H522 lung) is reported as 35.1 µM and the TGI (OVCAR-5 ovarian) is reported as > 100 µM. For the same compound, the TGI (RXF 393 renal) was 46.1 µM, the TGI (HOP-92 NSCLC) was 44.3 µM and the TGI (A549 NSCLC) was 65.9 µM. For the same compound, the TGI (LOX IMVI melanoma) was 66.1 µM, the TGI (SK-MEL-5 melanoma) was 73.2 µM and the TGI (NCI-H226 lung) was 63.4 µM.

For `O=C1C2C3C=CC(C2C(=O)N1CO)C1C2C(=O)N(CO)C(=O)C2C31` (stereo not drawn), the TGI (CCRF-CEM leukemia) was > 59.3 µM, the TGI (NCI-H522 lung) was > 100 µM and the TGI (OVCAR-5 ovarian) was > 100 µM. For the same compound, the TGI (RXF 393 renal) was > 100 µM, the TGI (HOP-92 NSCLC) was > 100 µM and the TGI (A549 NSCLC) was > 88.4 µM. The TGI (LOX IMVI melanoma) was > 61.9 µM, the TGI (SK-MEL-5 melanoma) was > 100 µM and the TGI (NCI-H226 lung) was > 100 µM.

`NNC(=O)C(=O)NN=C(C(Cl)(Cl)CO)C(Cl)(Cl)CO` was tested, and the TGI (CCRF-CEM leukemia) was 61.2 µM, the TGI (NCI-H522 lung) was 25 µM and the TGI (OVCAR-5 ovarian) was 92.2 µM. For the same compound, the TGI (RXF 393 renal) was 72.7 µM, the TGI (HOP-92 NSCLC) was 83.7 µM and the TGI (A549 NSCLC) was > 100 µM. The TGI (LOX IMVI melanoma) was 35.3 µM, the TGI (SK-MEL-5 melanoma) was > 100 µM and the TGI (NCI-H226 lung) was > 100 µM.

In the case of `Cc1nc2ccccc2c(=O)n1/N=C(\N=Nc1ccccc1Cl)c1ccccc1Cl`, the TGI (CCRF-CEM leukemia) is reported as > 100 µM, the TGI (NCI-H522 lung) is reported as 98.4 µM and the TGI (RXF 393 renal) is reported as 40.5 µM. For the same compound, the TGI (HOP-92 NSCLC) was 43.7 µM, the TGI (A549 NSCLC) was > 100 µM and the TGI (LOX IMVI melanoma) was > 100 µM. The TGI (SK-MEL-5 melanoma) was > 100 µM.

Compound `COc1ccc(Nc2cnc3cc(N)cc(N)c3n2)cc1` has a GI50 (CCRF-CEM leukemia) of 14.8 µM, a TGI (CCRF-CEM leukemia) of 89.7 µM and a GI50 (NCI-H522 lung) of 16.6 µM. The TGI (NCI-H522 lung) was 43.6 µM, the GI50 (RXF 393 renal) was 17.6 µM and the TGI (RXF 393 renal) was 39.6 µM. The GI50 (A549 NSCLC) was 26.8 µM, the TGI (A549 NSCLC) was > 100 µM and the GI50 (HS 578T breast) was 21.9 µM. It also gave a TGI (HS 578T breast) of 63.3 µM, a GI50 (LOX IMVI melanoma) of 18.8 µM and a TGI (LOX IMVI melanoma) of 40.5 µM. It also gave a GI50 (SK-MEL-5 melanoma) of 16 µM, a TGI (SK-MEL-5 melanoma) of 29.8 µM and a GI50 (NCI-H226 lung) of 17.2 µM. For the same compound, the TGI (NCI-H226 lung) was 45.8 µM.

For `O=NN(CCCl)C(=O)NC1CCC(CC(=O)O)CC1` (stereo not drawn), the TGI (CCRF-CEM leukemia) was > 100 µM and 62.2 µM, the TGI (NCI-H522 lung) was > 100 µM and the TGI (OVCAR-5 ovarian) was > 100 µM. The TGI (RXF 393 renal) was > 100 µM, the TGI (HOP-92 NSCLC) was > 100 µM and the TGI (A549 NSCLC) was > 100 µM. For the same compound, the TGI (LOX IMVI melanoma) was > 100 µM, the TGI (SK-MEL-5 melanoma) was > 100 µM and the TGI (NCI-H226 lung) was > 100 µM.

With `CC12OC(=O)C(C#N)C1(C)C1C(=O)CCCC12` (stereo not drawn) the TGI (CCRF-CEM leukemia) was > 100 µM, the TGI (OVCAR-5 ovarian) was > 100 µM and the TGI (RXF 393 renal) was > 100 µM. For the same compound, the TGI (A549 NSCLC) was > 100 µM, the TGI (LOX IMVI melanoma) was > 100 µM and the TGI (SK-MEL-5 melanoma) was > 100 µM. The TGI (NCI-H226 lung) was > 100 µM.

For `Nc1nc(=S)c2c(ncn2CCO)[nH]1`, the TGI (CCRF-CEM leukemia) was > 100 µM, the TGI (NCI-H522 lung) was > 100 µM and the TGI (OVCAR-5 ovarian) was > 100 µM. The TGI (RXF 393 renal) was > 100 µM, the TGI (HOP-92 NSCLC) was > 100 µM and the TGI (A549 NSCLC) was > 100 µM. For the same compound, the TGI (LOX IMVI melanoma) was > 100 µM, the TGI (SK-MEL-5 melanoma) was > 100 µM and the TGI (NCI-H226 lung) was > 100 µM.
